Measurements reported in patent publication US9210927B2, “Pesticidal compositions and processes related thereto” (Dow AgroSciences LLC, priority 2013, dated 2015).

Tests used:
Assay type in all cases: in vivo
GPA (Myzus persicae) = experiment: Bioassays on Green Peach Aphid (GPA), foliar spray on cabbage seedlings; conditions: 72 h, corrected % control (Abbott), 200 ppm spray on cabbage seedlings, three days, read-out: GPA Rating
Method: Bioassays on Green Peach Aphid (“GPA”) (Myzus persicae) Certain molecules disclosed in this document were tested against GPA using procedures described in the following example. In the reporting of the results, the “GPA Rating Table” was used (See Table Section). Cabbage seedlings grown in 3-inch pots, with 2-3 small (3-5 cm) true leaves, were used as test substrate. The seedlings were infested with 20-50 GPA (wingless adult and nymph stages) one day prior to chemical application. Four pots with individual seedlings were used for each treatment. Test compounds (2 mg) were dissolved in 2 mL of acetone/MeOH (1:1) solvent, forming stock solutions of 1000 ppm test compound. The stock solutions were diluted 5× with 0.025% Tween 20 in H2O to obtain the solution at 200 ppm test compound. A hand-held aspirator-type sprayer was used for spraying a solution to both sides of […] leaves until runoff. Reference plants (solvent check) were sprayed with the diluent only containing 20% by volume of acetone/MeOH (1:1) solvent. Treated plants were held in a holding room for three days at approximately 25° C. and ambient relative humidity (RH) prior to grading. Evaluation was conducted by counting the number of live aphids per plant under a microscope. Percent Control was measured by using Abbott's correction formula (W. S. Abbott, “A Method of Computing the Effectiveness of an Insecticide” J. Econ. Entomol. 18 (1925), pp. 265-267) as follows. Corrected % Control=100*(X−Y)/X • where • X=No. of live aphids on solvent check plants and • Y=No. of live aphids on treated plants The results are indicated in the table entitled “Table 3: Assay Results” (See Table Section).

CEW (Helicoverpa zea) = experiment: Bioassays on Corn Earworm (CEW), 128-well diet tray assay; conditions: Helicoverpa zea, 168 h; percent mortality, second instar larvae, 50 μg/cm^2 on artificial diet, five to seven days, 25° C.; read-out: CEW Rating
Method: (§1) Bioassays on Beet Armyworm (“BAW”) and Corn Earworm (“CEW”) and Cabbage Looper (“CL”)
(§2) Certain molecules disclosed in this document were tested against BAW and CEW and CL using procedures described in the following examples. In the reporting of the results, the “BAW & CEW & CL Rating Table” was used (See Table Section).
Bioassays on CEW (Helicoverpa zea)
Bioassays on CEW were conducted using a 128-well diet tray assay. one to five second instar CEW larvae were placed in each well (3 mL) of the diet tray that had been previously filled with 1 mL of artificial diet to which 50 μg/cm^2 of the test compound (dissolved in 50 μL of 90:10 acetone-water mixture) had been applied (to each of eight wells) and then allowed to dry. Trays were covered with a clear self-adhesive cover, and held at 25° C., 14:10 light-dark for five to seven days. Percent mortality was recorded for the larvae in each well; activity in the eight wells was then averaged. The results are indicated in the table entitled “Table 3: Assay Results” (See Table Section).

BAW (Spodoptera exigua) = experiment: Bioassays on Beet Armyworm (BAW), 128-well diet tray assay; conditions: Spodoptera exigua, 168 h, read-out: BAW Rating
Method: as §1, §2
Bioassays on BAW (Spodoptera exigua)
Bioassays on BAW were conducted using a 128-well diet tray assay. one to five second instar BAW larvae were placed in each well (3 mL) of the diet tray that had been previously filled with 1 mL of artificial diet to which 50 μg/cm^2 of the test compound (dissolved in 50 μL of 90:10 acetone-water mixture) had been applied (to each of eight wells) and then allowed to dry. Trays were covered with a clear self-adhesive cover, and held at 25° C., 14:10 light-dark for five to seven days. Percent mortality was recorded for the larvae in each well; activity in the eight wells was then averaged. The results are indicated in the table entitled “Table 3: Assay Results” (See Table Section).

Row | SMILES | pest or weed control at 200 ppm (GPA (Myzus persicae)) | pest or weed control at 50 µg/cm2 (CEW (Helicoverpa zea)) | pest or weed control at 50 µg/cm2 (BAW (Spodoptera exigua))
1 | CNC(=O)c1ccc(/C=C/C(c2cc(Cl)cc(Cl)c2)C(F)(F)F)cc1 (stereo not drawn) [AC1] | 0 to 80% | – | –
2 | CN(C)C(=O)c1ccc(/C=C/C(c2cc(Cl)cc(Cl)c2)C(F)(F)F)cc1 (stereo not drawn) [AC3] | 0 to 80% | – | –
3 | O=C(NCC(F)(F)F)c1ccc(/C=C/C(c2cc(Cl)cc(Cl)c2)C(F)(F)F)cc1 (stereo not drawn) [AC4] | 0 to 80% | 50 to 100% | –
4 | O=C(c1ccc(/C=C/C(c2cc(Cl)cc(Cl)c2)C(F)(F)F)cc1)N1CCOCC1 (stereo not drawn) [AC5] | 0 to 80% | – | –
5 | Cc1cc(/C=C/C(c2cc(Cl)cc(Cl)c2)C(F)(F)F)ccc1C(=O)NCC(F)(F)F (stereo not drawn) [AC6, (E)-4-(3-(3,5-Dichlorophenyl)-4,4,4-trifluorobut-1-enyl)-2-methyl-N-(2,2,2-trifluoroethyl)benzamide] | 0 to 80% | 50 to 100% | –
6 | Cc1cc(/C=C/C(c2cc(Cl)cc(Cl)c2)C(F)(F)F)ccc1C(=O)NCc1ccc(Cl)nc1 (stereo not drawn) [AC7] | 0 to 80% | 50 to 100% | 50 to 100%
7 | Cc1cc(/C=C/C(c2cc(Cl)cc(Cl)c2)C(F)(F)F)ccc1C(=O)N1CCCC1=O (stereo not drawn) [AC8] | 0 to 80% | 0 to 50% | –
8 | Cc1cc(/C=C/C(c2cc(Cl)cc(Cl)c2)C(F)(F)F)ccc1C(=O)NCc1ccccc1F (stereo not drawn) [AC9] | 0 to 80% | 50 to 100% | 50 to 100%
9 | Cc1cc(/C=C/C(c2cc(Cl)cc(Cl)c2)C(F)(F)F)ccc1C(=O)NC1CSC1 (stereo not drawn) [AC10] | 0 to 80% | 50 to 100% | 50 to 100%
10 | Cc1cc(/C=C/C(c2cc(Cl)cc(Cl)c2)C(F)(F)F)ccc1C(=O)NC1CS(=O)(=O)C1 (stereo not drawn) [AC13] | 0 to 80% | 50 to 100% | 50 to 100%
11 | Cc1cc(/C=C/C(c2cc(Cl)cc(Cl)c2)C(F)(F)F)ccc1C(=O)NCc1cnc(Cl)s1 (stereo not drawn) [AC15] | 0 to 80% | 50 to 100% | 50 to 100%
12 | Cc1cc(/C=C/C(c2cc(Cl)cc(Cl)c2)C(F)(F)F)ccc1C(=O)NNc1ccccc1F (stereo not drawn) [AC17] | 0 to 80% | 50 to 100% | 50 to 100%
13 | Cc1cc(/C=C/C(c2cc(Cl)cc(Cl)c2)C(F)(F)F)ccc1C(=O)NCc1ncccn1 (stereo not drawn) [AC18] | 0 to 80% | 50 to 100% | 50 to 100%
14 | Cc1cc(/C=C/C(c2cc(Cl)cc(Cl)c2)C(F)(F)F)ccc1C(=O)NCC1CCOC1 (stereo not drawn) [AC19] | 0 to 80% | – | –
15 | Cc1cc(/C=C/C(c2cc(Cl)c(Cl)c(Cl)c2)C(F)(F)F)ccc1C(=O)NC1CSC1 (stereo not drawn) [AC23] | 0 to 80% | 50 to 100% | 50 to 100%
16 | Cc1cc(/C=C/C(c2cc(Cl)c(Cl)c(Cl)c2)C(F)(F)F)ccc1C(=O)NCc1cnc(Cl)s1 (stereo not drawn) [AC26] | 0 to 80% | 50 to 100% | 50 to 100%
17 | Cc1cc(/C=C/C(c2cc(Cl)cc(Cl)c2)C(F)(F)F)ccc1C(=O)NCC(=O)NNC(=O)C1CC1 (stereo not drawn) [AC47] | 0 to 80% | – | –
18 | Cc1cc(/C=C/C(c2cc(Cl)cc(Cl)c2)C(F)(F)F)ccc1C(=O)NCc1nccn1C (stereo not drawn) [AC50] | 0 to 80% | – | 50 to 100%
19 | COc1cc(/C=C/C(c2cc(Cl)c(F)c(Cl)c2)C(F)(F)F)ccc1C(=O)NCc1ccc(Cl)nc1 (stereo not drawn) [AC70] | 0 to 80% | – | –
20 | Cc1cc(/C=C\C(c2cc(Cl)cc(Cl)c2)C(F)(F)F)ccc1C(=O)NCc1ccc(Cl)nc1 (stereo not drawn) [AC94] | 0 to 80% | 0 to 50% | –
21 | Cc1cc(/C=C/C(c2cc(Cl)cc(Cl)c2)C(F)(F)F)ccc1C(=O)N(C)Cc1ccc(Cl)nc1 (stereo not drawn) [AC117] | 0 to 80% | – | 50 to 100%

Row | SMILES | pest or weed control at 200 ppm (GPA (Myzus persicae)) | pest or weed control at 50 µg/cm2 (CEW (Helicoverpa zea)) | pest or weed control at 50 µg/cm2 (BAW (Spodoptera exigua))
22 | CC(C)(C)C(=O)NCc1ccc(/C=C/C(c2cc(Cl)c(Cl)c(Cl)c2)C(F)(F)F)cc1Cl (stereo not drawn) [CC12] | 0 to 80% | – | –
23 | O=C(NCc1ccc(/C=C/C(c2cc(Cl)c(Cl)c(Cl)c2)C(F)(F)F)cc1Br)C1CC1 (stereo not drawn) [CC26] | 0 to 80% | – | 50 to 100%
24 | CC(C)(C)OC(=O)NCc1ccc(/C=C/C(c2cc(Cl)c(Cl)c(Cl)c2)C(F)(F)F)cc1Cl (stereo not drawn) [CC39] | 0 to 80% | – | –
25 | COC(=O)C(=O)NCc1ccc(/C=C/C(c2cc(Cl)c(Cl)c(Cl)c2)C(F)(F)F)cc1Cl (stereo not drawn) [CC41, (E)-Methyl 2-((2-chloro-4-(4,4,4-trifluoro-3-(3,4,5-trichlorophenyl)but-1-en-1-yl)benzyl)amino)-2-oxoacetate] | 0 to 80% | – | –
26 | O=C(CC(F)(F)F)NOc1ccc(/C=C/C(c2cc(Cl)c(Cl)c(Cl)c2)C(F)(F)F)cc1 (stereo not drawn) [CC53] | 0 to 80% | – | –
27 | Cc1cc(/C=C/C(c2cc(Cl)c(Cl)c(Cl)c2)C(F)(F)F)cc(C#N)c1-n1cncn1 (stereo not drawn) [DC45] | – | 50 to 100% | 50 to 100%
28 | N#Cc1cc(/C=C\C(c2cc(Cl)c(F)c(Cl)c2)C(F)(F)F)ccc1-n1cncn1 (stereo not drawn) [DC46] | – | 50 to 100% | 50 to 100%
29 | FC(F)(F)C(/C=C/c1ccc(-n2cncn2)c(Br)c1)c1cc(Cl)cc(Cl)c1 (stereo not drawn) [DC47] | – | 50 to 100% | 50 to 100%
30 | Fc1cc(/C=C/C(c2cc(Cl)cc(Cl)c2)C(F)(F)F)ccc1-n1cncn1 (stereo not drawn) [DC48] | – | 50 to 100% | 50 to 100%
31 | FC(F)(F)C(/C=C/c1ccc(-n2cncn2)c(Cl)c1)c1cc(Cl)c(Cl)c(Cl)c1 (stereo not drawn) [DC49] | – | 50 to 100% | 50 to 100%
32 | FC(F)(F)C(/C=C/c1ccc(-n2cncn2)c(Cl)c1)c1cc(Cl)cc(Cl)c1 (stereo not drawn) [DC50] | – | 50 to 100% | 50 to 100%
33 | FC(F)(F)c1cc(/C=C/C(c2cc(Cl)cc(Cl)c2)C(F)(F)F)ccc1-n1cncn1 (stereo not drawn) [DC51] | – | 50 to 100% | 50 to 100%
34 | CNc1cc(/C=C/C(c2cc(Cl)cc(Cl)c2)C(F)(F)F)ccc1-n1cncn1 (stereo not drawn) [DC57, (E)-5-(3-(3,5-Dichlorophenyl)-4,4,4-trifluorobut-1-en-1-yl)-N-methyl-2-(1H-1,2,4-triazol-1-yl)aniline] | – | 50 to 100% | 50 to 100%
35 | CCOC(=O)c1cc(/C=C/C(c2cc(Cl)cc(Cl)c2)C(F)(F)F)ccc1-n1cncn1 (stereo not drawn) [DC60] | – | 50 to 100% | 50 to 100%
36 | Cc1cc(/C=C/C(c2cc(Cl)cc(Cl)c2)C(F)(F)F)ccc1-n1cncn1 (stereo not drawn) [DC62] | – | 50 to 100% | 50 to 100%
37 | Cc1cc(/C=C/C(c2cc(Cl)c(Cl)c(Cl)c2)C(F)(F)F)ccc1-n1cncn1 (stereo not drawn) [DC63] | – | 50 to 100% | 50 to 100%
38 | FC(F)(F)C(/C=C/c1ccc(-n2cncn2)cc1Cl)c1cc(Cl)c(Cl)c(Cl)c1 (stereo not drawn) [DC66] | – | 50 to 100% | 50 to 100%
39 | FC(F)(F)C(/C=C/c1ccc(-n2cncn2)cc1Cl)c1cc(Cl)cc(Cl)c1 (stereo not drawn) [DC67] | – | 50 to 100% | 50 to 100%
40 | C/C(=C\C(c1cc(Cl)cc(Cl)c1)C(F)(F)F)c1ccc(-n2cncn2)cc1 (stereo not drawn) [DC68, (E)-1-(4-(4-(3,5-Dichlorophenyl)-5,5,5-trifluoropent-2-en-2-yl)phenyl)-1H-1,2,4-triazole] | – | 50 to 100% | 50 to 100%
41 | COC(/C=C/c1ccc(-n2cncn2)cc1)(c1cc(Cl)cc(Cl)c1)C(F)(F)F (stereo not drawn) [DC70, (E)-1-(4-(3-(3,5-Dichlorophenyl)-4,4,4-trifluoro-3-methoxybut-1-en-1-yl)phenyl)-1H-1,2,4-triazole] | – | 50 to 100% | 50 to 100%
